Experimental data published in patent US8835556B2, “Hydrolytically stable maleimide-terminated polymers” (priority 2002, dated 2014).

Settings: buffer
Procedure: Typically, such hydrolysis evaluations are carried out at pH 7.5 in phosphate buffer at room temperature and are measured by observing the UV absorption of the maleimide ring.
The half-life of a polymer maleimide can be determined by measuring the concentration of the maleimide-terminated polymer over time using HPLC or by observing the UV absorption of the maleimide ring.
Using HPLC analysis, the rate of hydrolytic degradation of the maleimide ring of several exemplary maleimide-terminated mPEG polymers (average molecular weight 5000 Da) was explored.
The following linkages between the maleimide and the PEG polymer segment were evaluated: amidoethylene (L1-AMDE), amidopentamethylene (L1-AMPE), amidocyclohexylmethyl (L1-MCH), oxybutyl (L3-TEME), oxyhexyl (L3-HEXA), oxyethyl (L3-ET), and oxypropyl (L3-TME).
Hydrolysis studies were conducted on several exemplary stabilized PEG-maleimides as described above in Example 7.

| Substance | HALF-LIFE, IN HOURS [h] | Half-life [h] |
| --- | --- | --- |
| 1-(N-maleimidomethyl)-4-(methoxypoly(ethylene glycol)propionamidomethyl)cyclohexane | 20.6 | – |
| 1-N-maleimidomethyl-3-(methoxypoly(ethylene glycol)propionamidomethyl)cyclohexane | 64.6 | – |
| mPEG (5K DA)-propylmaleimide [mPEG-TME-MAL] | 11.5 | 11.5 |
